Data: PubChem BioAssay AID330 (DTP/NCI, 2004)
Values joined by “and” are separate entries in the source; they are usually repeats but may differ in a detail not shown here. Equal entries are not always repeated. Toxic doses and inconclusive results are not listed. Rule for the calls: active = survival T/C of 150% or more; inactive = T/C below 125% in these data. Square brackets hold non-standard residues; d marks the D form. Peptide text beside a SMILES is read from it. * marks the point of attachment. Hpg = N[CH](C(=O)O)c1ccc(O)cc1; Cbz = O=C(OCc1ccccc1)*; OBn = c1ccc(CO*)cc1

System: P388 leukemia ip, CD2F1 mice, survival T/C
Assay: NCI In Vivo Anticancer Drug Screen. Data for tumor model P388 Leukemia (intraperitoneal) in CD2F1 (CDF1) mice
Details: endpoint: median survival time, higher = longer survival
Outline: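 Mice carrying the transplanted tumor received test compound or vehicle. Survival was recorded in each group, and the value is the treated-group measurement divided by that of the vehicle-treated control group.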

[1] = dose: 100.0 mg/kg/injection, schedule: Q04DX003 (ip), vehicle: saline with Tween-80
[2] = dose: 200.0 mg/kg/injection, schedule: Q01DX009 (ip), vehicle: saline with Tween-80
[3] = dose: 400.0 mg/kg/injection, schedule: Q01DX009 (ip), vehicle: saline with Tween-80
[4] = dose: 50.0 mg/kg/injection, schedule: Q01DX005 (ip), vehicle: Klucel (hydroxypropylcellulose) (HPC)
[5] = dose: 100.0 mg/kg/injection, schedule: Q01DX005 (ip), vehicle: Klucel (hydroxypropylcellulose) (HPC)
[6] = dose: 200.0 mg/kg/injection, schedule: Q01DX005 (ip), vehicle: Klucel (hydroxypropylcellulose) (HPC)
[7] = dose: 50.0 mg/kg/injection, schedule: Q01DX009 (ip), vehicle: Klucel (hydroxypropylcellulose) (HPC)
[8] = dose: 100.0 mg/kg/injection, schedule: Q01DX009 (ip), vehicle: Klucel (hydroxypropylcellulose) (HPC)
[9] = dose: 200.0 mg/kg/injection, schedule: Q01DX009 (ip), vehicle: Klucel (hydroxypropylcellulose) (HPC)
[10] = dose: 50.0 mg/kg/injection, schedule: Q01DX009 (ip), vehicle: saline
[11] = dose: 100.0 mg/kg/injection, schedule: Q01DX009 (ip), vehicle: saline
[12] = dose: 50.0 mg/kg/injection, schedule: Q01DX005 (ip), vehicle: saline with Tween-80
[13] = dose: 100.0 mg/kg/injection, schedule: Q01DX005 (ip), vehicle: saline with Tween-80
[14] = dose: 200.0 mg/kg/injection, schedule: Q01DX005 (ip), vehicle: saline with Tween-80
[15] = dose: 25.0 mg/kg/injection, schedule: Q01DX009 (ip), vehicle: saline with Tween-80
[16] = dose: 50.0 mg/kg/injection, schedule: Q01DX009 (ip), vehicle: saline with Tween-80
[17] = dose: 100.0 mg/kg/injection, schedule: Q01DX009 (ip), vehicle: saline with Tween-80
[18] = dose: 12.5 mg/kg/injection, schedule: Q01DX009 (ip), vehicle: saline with Tween-80
[19] = dose: 12.5 mg/kg/injection, schedule: Q01DX009 (ip), vehicle: saline
[20] = dose: 25.0 mg/kg/injection, schedule: Q01DX009 (ip), vehicle: saline

Measured: T/C

C[C@H]1C[C@@H]2[C@H]([C@@H](O)C[C@@]3(C)[C@H]2CC[C@]3(O)C(=O)CF)[C@@]2(C)C=CC(=O)C=C12
inactive: dose: 10.0 mg/kg/injection, schedule: Q01DX009 (ip), vehicle: saline with Tween-80 104 % of control | [1] 100 % of control | [2] 95 % of control | dose: 200.0 mg/kg/injection, schedule: Q04DX003 (ip), vehicle: saline with Tween-80 100 % of control | [3] 86 % of control | dose: 400.0 mg/kg/injection, schedule: Q04DX003 (ip), vehicle: saline with Tween-80 100 % of control

Cc1ccc(NCCN(C)CC(C)O)c2c(=O)c3ccc(Cl)cc3sc12 (centres undefined)
inactive: [4] 102 % of control | [5] 101 % of control | [6] 95 % of control

COc1ccc2c(c1)C(Br)CCCC2=O (centres undefined)
inactive: dose: 400.0 mg/kg/injection, schedule: Q01DX009 (ip), vehicle: distilled water + alcohol 106 % of control

O=c1[nH]c2c([N+](=O)[O-])cc(Cl)cc2nc1/C=C(\O)c1ccco1
inactive: dose: 60.0 mg/kg/injection, schedule: Q01DX005 (ip), vehicle: saline with Tween-80 101 % of control | dose: 120.0 mg/kg/injection, schedule: Q01DX005 (ip), vehicle: saline with Tween-80 89 % of control | dose: 240.0 mg/kg/injection, schedule: Q01DX005 (ip), vehicle: saline with Tween-80 92 % of control

CC/C(=C(/O)c1ccccc1)c1nc2ccc(Cl)cc2[nH]c1=O
inactive: dose: 60.0 mg/kg/injection, schedule: Q01DX005 (ip), vehicle: Klucel + Tween-80 100 % of control | dose: 120.0 mg/kg/injection, schedule: Q01DX005 (ip), vehicle: Klucel + Tween-80 93 % of control | dose: 240.0 mg/kg/injection, schedule: Q01DX005 (ip), vehicle: Klucel + Tween-80 98 % of control

CCC(=O)c1ccc(OS(=O)(=O)O)cc1
inactive: [7] 96 % of control | [8] 103 % of control | [9] 99 % of control

O=C1Nc2ccc(Br)cc2/C1=C/C(=O)c1ccccc1
inactive: [7] 111 % of control | [8] 101 % of control | [9] 103 % of control

Nc1ccc2ccccc2c1[N+](=O)[O-]
inactive: [7] 105 % of control | [8] 102 % of control | [9] 113 % of control

CS(=O)(=O)O
inactive: [10] 100 % of control | [11] 110 % of control | dose: 200.0 mg/kg/injection, schedule: Q01DX009 (ip), vehicle: saline 108 % of control

CC1(C)C(=O)c2cc3ccccc3nc2-c2ccccc21
inactive: [12] 100 % of control | [13] 99 % of control | [14] 105 % of control

C/C=C(\NN=NC)c1ccccc1
active: dose: 200.0 mg/kg/injection, schedule: Q04DX002 (ip), vehicle: saline with Tween-80 166 % of control

CCc1cccc(NC(=O)NNC(=O)c2ccncc2)c1
inactive: [7] 96 % of control | [8] 100 % of control

C/C(=N\N=C(N)N)c1ccc2c(c1)Cc1ccccc1-2
inactive: dose: 25.0 mg/kg/injection, schedule: Q04DX002 (ip), vehicle: saline with Tween-80 101 % of control | dose: 50.0 mg/kg/injection, schedule: Q04DX002 (ip), vehicle: saline with Tween-80 103 % of control

C1CC[N-]CC1.C1CC[N-]CC1.C1CC[N-]CC1.C1CC[N-]CC1.N#C[S-].N#C[S-].[Ni]
inactive: dose: 5.0 mg/kg/injection, schedule: Q04DX003 (ip), vehicle: saline with Tween-80 100 % of control | dose: 10.0 mg/kg/injection, schedule: Q04DX003 (ip), vehicle: saline with Tween-80 100 % of control

CN(C)CCC(=O)c1ccc(C(=O)CCN(C)C)cc1
inactive: dose: 25.0 mg/kg/injection, schedule: Q01DX005 (ip), vehicle: saline 108 % of control | dose: 50.0 mg/kg/injection, schedule: Q01DX005 (ip), vehicle: saline 107 % of control | dose: 100.0 mg/kg/injection, schedule: Q01DX005 (ip), vehicle: saline 107 % of control

CCCCOC(=O)/C=C/C(=O)N1CCN(C(=O)/C=C/C(=O)OCCCC)C(C)C1 (centres undefined)
inactive: [4] 100 % of control | [5] 94 % of control | [6] 96 % of control

CCOC(=O)C(CCl)C(C(=O)OCC)C(=O)OCC (centres undefined)
inactive: [15] 117 % of control | [16] 110 % of control | [17] 112 % of control

COC(=O)c1cc2cc3c(c(O)c2c(=O)o1)OC1(Cc2c(O)c4c(c(O)c2O1)C(=O)C(OC)CC4=O)CC3O (centres undefined)
inactive: [18] 93 % of control | [15] 100 % of control | [16] 116 % of control

CC(C)C(NC(=O)C(CCCCNC(=O)OCc1ccccc1)NC(=O)OCc1ccccc1)C(=O)OCc1ccccc1 (centres undefined) (Cbz-Lys(Cbz)-Val-OBn; configuration not given here)
inactive: [12] 89 % of control | [13] 91 % of control | [14] 103 % of control

Cc1cc2nc(CC(=O)c3ccccc3)c(CC(=O)c3ccccc3)nc2cc1C
inactive: dose: 7.5 mg/kg/injection, schedule: Q01DX005 (ip), vehicle: saline with Tween-80 98 % of control | dose: 15.0 mg/kg/injection, schedule: Q01DX005 (ip), vehicle: saline with Tween-80 95 % of control

CCCCCCCCCOCC(O)CCl (centres undefined)
inactive: [7] 97 % of control | [8] 98 % of control | [9] 93 % of control

CCCCNP(=O)(N1CC1C)N1CC1C (centres undefined)
inactive: dose: 8.25 mg/kg/injection, schedule: Q01DX009 (ip), vehicle: saline 112 % of control | [19] 120 % of control | [20] 109 % of control | [10] 86 % of control

O=C1NN=CC1CCCN=Cc1cc(Br)ccc1O (centres undefined)
inactive: [16] 96 % of control | [17] 104 % of control | [2] 114 % of control

CC1CN(C)CCN1C (centres undefined)
inactive: [17] 100 % of control | [2] 100 % of control | [3] 95 % of control

COc1ccc(Cc2c3cc(OC)c(OC)cc3cc(=O)n2C)cc1OC
inactive: [7] 106 % of control | [8] 106 % of control

CCc1c(C#N)c(N)c2c(N)c(C(=O)c3ccccc3)sc2c1C
inactive: [4] 89 % of control | [5] 101 % of control | [6] 95 % of control

CC1(c2ccccc2)CCC(O)CC1CC(=O)O (centres undefined)
inactive: [12] 98 % of control | [13] 100 % of control | [14] 101 % of control

CC(=O)NCCSC(=O)C(O)(c1ccccc1)c1ccccc1
inactive: [7] 100 % of control | [8] 98 % of control | [9] 99 % of control

CCOC(=O)NC(=S)C1=C(N2CCOCC2)CCC1
inactive: [7] 106 % of control | [8] 122 % of control | [9] 97 % of control

CC1=CC(C)(C)NC(=S)N1c1cccc(Cl)c1
inactive: dose: 3.12 mg/kg/injection, schedule: Q01DX009 (ip), vehicle: saline with Tween-80 107 % of control and 118 % of control | dose: 6.25 mg/kg/injection, schedule: Q01DX009 (ip), vehicle: saline with Tween-80 111 % of control and 114 % of control | [18] 101 % of control and 118 % of control | [17] 93 % of control | [2] 90 % of control | [3] 90 % of control

Cc1n[nH]c(=S)nc1C
inactive: dose: 12.5 mg/kg/injection, schedule: Q04DX003 (ip), vehicle: saline with Tween-80 100 % of control | dose: 25.0 mg/kg/injection, schedule: Q04DX003 (ip), vehicle: saline with Tween-80 93 % of control | dose: 50.0 mg/kg/injection, schedule: Q04DX003 (ip), vehicle: saline with Tween-80 100 % of control | [1] 95 % of control

Oc1ccc2c(c1)OC1(c3ccccc3)CC2N=CN1 (centres undefined)
inactive: [19] 103 % of control | [20] 95 % of control | [10] 107 % of control | dose: 50.0 mg/kg/injection, schedule: Q01DX009 (ip), vehicle: suspension in saline 98 % of control and 92 % of control | dose: 100.0 mg/kg/injection, schedule: Q01DX009 (ip), vehicle: suspension in saline 98 % of control and 92 % of control | dose: 200.0 mg/kg/injection, schedule: Q01DX009 (ip), vehicle: suspension in saline 99 % of control

OCCSC(=S)Nc1ccc(Cl)c(Cl)c1
inactive: [10] 96 % of control | [11] 103 % of control

CC(C)c1ccc(C(=O)O)cc1
inactive: [16] 103 % of control | [17] 103 % of control | [2] 115 % of control

CCOC(=O)/C=C/CI
inactive: dose: 25.0 mg/kg/injection, schedule: Q01DX009 (ip), vehicle: other 105 % of control and 98 % of control | dose: 50.0 mg/kg/injection, schedule: Q01DX009 (ip), vehicle: other 114 % of control and 120 % of control and 97 % of control | dose: 100.0 mg/kg/injection, schedule: Q01DX009 (ip), vehicle: other 117 % of control and 97 % of control

CC(C)CC(N)C(=O)NC(C(=O)O)c1ccc(O)cc1 (centres undefined) (H-Leu-[Hpg]-OH; configuration not given here)
inactive: [16] 103 % of control | [17] 101 % of control | [2] 102 % of control
